Tested on: HCV2aChLuc virus
Test: In vitro HCVcc entry assay: HCV2aChLuc virus infection of Huh7 cells, Renilla luciferase read-out
Assay type: cell-based, HCV genotype 2a
Details: Hepatitis C virus, Huh-7, read-out: Activity class (IC50), tested according to the method of Example 3

| SMILES | IC50 [nM] |
| --- | --- |
| COc1c(NC(=O)C(=O)c2ccc(OCCN3CCOCC3)c3ccccc23)cc(C(C)(C)C)cc1S(=O)(=O)N(C)C [Compound 2, N-(5-tert-butyl-3-(N,N-dimethylsulfamoyl)-2-methoxyphenyl)-2-(4-(2-morpholinoethoxy)naphthalen-1-yl)-2-oxoacetamide] | < 5 |
| COc1c(NC(=O)C(=O)c2ccc(OCCN(CCO)CCO)c3ccccc23)cc(C(C)(C)C)cc1NS(C)(=O)=O [Compound 3, 2-(4-(2-(bis(2-hydroxyethyl)amino)ethoxy)-naphthalen-1-yl)-N-(5-tert-butyl-2-methoxy-3-(methylsulfonamido)phenyl)-2-oxoacetamide] | < 5 |
| COc1c(C#N)cc(C(C)(C)C)cc1NC(=O)C(=O)c1ccc(OCCN2CCOCC2)c2ccccc12 [Compound 4, N-(5-tert-butyl-3-cyano-2-methoxyphenyl)-2-(4-(2-morpholinoethoxy)naphthalen-1-yl)-2-oxoacetamide] | < 5 |
| CNC(=O)c1cc(C(C)(C)C)cc(NC(=O)C(=O)c2ccc(OCCN3CCOCC3)c3ccccc23)c1OC [Compound 6, 5-tert-butyl-2-methoxy-N-methyl-3-(2-(4-(2-morpholinoethoxy)naphthalen-1-yl)-2-oxoacetamido)benzamide] | < 5 |
| CCNC(=O)c1cc(C(C)(C)C)cc(NC(=O)C(=O)c2ccc(OCCN3CCOCC3)c3ccccc23)c1OC [Compound 7, 5-tert-butyl-N-ethyl-2-methoxy-3-(2-(4-(2-morpholinoethoxy)naphthalen-1-yl)-2-oxoacetamido)benzamide] | < 5 |
| CCNC(=O)c1cc(C(C)(C)C)cc(NC(=O)C(=O)c2ccc(OC)c3ccccc23)c1OC [Compound 8, 5-tert-butyl-N-ethyl-2-methoxy-3-(2-(4-methoxynaphthalen-1-yl)-2-oxoacetamido)benzamide] | < 5 |
| COCCNC(=O)c1cc(C(C)(C)C)cc(NC(=O)C(=O)c2ccc(OCCN3CCOCC3)c3ccccc23)c1OC [Compound 9, 5-tert-butyl-2-methoxy-N-(2-methoxyethyl)-3-(2-(4-(2-morpholinoethoxy)naphthalen-1-yl)-2-oxoacetamido)benzamide] | < 5 |
| COc1c(NC(=O)C(=O)c2ccc(OCCN3CCOCC3)c3ccccc23)cc(C(C)(C)C)cc1C(=O)Nc1ccccn1 [Compound 10, 5-tert-butyl-2-methoxy-3-(2-(4-(2-morpholinoethoxy)naphthalen-1-yl)-2-oxoacetamido)-N-(pyridin-2-yl)benzamide] | < 5 |
| COC(=O)c1sc(C(C)(C)C)cc1NC(=O)C(=O)c1ccc(OCCN2CCOCC2)c2ccccc12 [Compound 11, methyl 5-tert-butyl-3-(2-(4-(2-morpholinoethoxy)naphthalen-1-yl)-2-oxoacetamido)thiophene-2-carboxylate] | < 5 |
| CNC(=O)c1sc(C(C)(C)C)cc1NC(=O)C(=O)c1ccc(OCCN2CCOCC2)c2ccccc12 [Compound 12, 5-tert-butyl-N-methyl-3-(2-(4-(2-morpholinoethoxy)naphthalen-1-yl)-2-oxoacetamido)thiophene-2-carboxamide] | < 5 |
| COc1c(NC(=O)C(=O)c2ccc(OCCN3CCOCC3)c3ccccc23)cc(C)cc1NS(C)(=O)=O [Compound 13, N-(2-methoxy-5-methyl-3-(methylsulfonamido)phenyl)-2-(4-(2-morpholinoethoxy)naphthalen-1-yl)-2-oxoacetamide] | 5 to 500 |
| COc1ccc(C(C)(C)C)cc1NC(=O)C(=O)c1ccc(OC)c2ccccc12 [Compound 14, N-(5-tert-butyl-2-methoxyphenyl)-2-(4-methoxynaphthalen-1-yl)-2-oxoacetamide] | < 5 |
| COc1ccc(C2CCCCC2)cc1NC(=O)C(=O)c1ccc(OCCN2CCOCC2)c2ccccc12 [Compound 15, N-(5-cyclohexyl-2-methoxyphenyl)-2-(4-(2-morpholinoethoxy)naphthalen-1-yl)-2-oxoacetamide] | < 5 |

Source: patent US20110117055A1, “Methods of Treating Hepatitis C Virus with Oxoacetamide Compounds” (priority 2009, published 2011)
